This is an account of results in patent US20230138455A1, “METHODS OF DOSING OF APICAL SODIUM-DEPENDENT BILE ACID TRANSPORTER INHIBITORS (ASBTIs)” (Mirum Pharmaceuticals, Inc., priority 2021, published 2023).

Structures can show the parent of a compound that is named as a salt.

Series [1] can be described thus: Phase 1 clinical study, incidence of GI TEAEs after Maralixibat 30 mg in fed versus fasted state. The class given is in vivo, human. The following applies: healthy participants. The procedure:
(§1) FIG. 2 is pie charts showing the proportion of healthy participants who experienced gastrointestinal (GI) treatment-emergent adverse events (AEs) following ASBTI administration at mealtime versus in the fasted state for each of the three studies. […] In each clinical study, the ASBTI was administered in both a fed and fasted state, and rates of GI AEs were compared.

The nature of series [2]: Placebo-controlled trials in patients with ALGS, MRX dosed 30 mins prior to a meal, GI AE rates. The class given is in vivo, human. The following applies: PBO-controlled trials, dosed in the fasted state 30 mins prior to a meal (PBO 44.4%). The method, then:
(§2) AE data from 3 separate phase 1 clinical studies on MRX and VLX in healthy participants were compiled to assess the impact of ASBTI dosing vs mealtime on GI AEs (Table 1, FIG. 1). In each clinical study, the ASBTI was administered in both a fed and fasted state, and rates of GI AEs were compared. Separately, AE data from placebo (PBO)-controlled trials in patients with ALGS, where MRX was dosed 30 mins prior to a meal, allows a comparison of GI AE rates for MRX vs PBO.

Series [3] is described as follows: Phase 1 clinical study, incidence of GI TEAEs after Maralixibat 10 mg in fed versus fasted state. The class given is in vivo, human. Particulars: healthy participants. The procedure: as §1
The test system of series [4] is fecal bile acid (fBA) excretion. The series can be described thus: Effect of maralixibat on fecal bile acid (fBA) excretion in healthy dogs, dosing time relative to mealtime. In kind it is in vivo. Particulars: for increase in fBA excretion, change compared with pre-treatment value: day 7. The method, then:
FIG. 4 is a bar graph of the effect of maralixibat (MRX) on fecal bile acid (fBA) in dogs: change in fBA excretion from pre-treatment to day 7. The PD impact of ASBTI dosing time to mealtime was investigated in healthy dogs (FIG. 3). […] P<0.01 versus pre-treatment, by one-tail paired t-test. Data are presented as ±SEM (n = 7-8). % = change compared with pre-treatment value. Groups were dosed at the indicated times. Fecal samples were taken 48 hours before treatment initiation and for the last 72 hours of the 7-day treatment period and analyzed for bile acid content.

Series [5] is described as follows: Phase 1 clinical study, incidence of GI TEAEs after Volixibat 75 mg in fed versus fasted state. In kind it is in vivo, human. The following applies: healthy participants. The procedure: FIG. 1 depicts study designs, drugs (MRX = maralixibat, VLX = volixibat), doses and at mealtime/fasted timelines for certain embodiments according to the disclosure. *Fasting was started ≥10-12 hours before MRX dosing. ^‡Patients were randomized 1:1 to two cohorts and received sequentially fasted then at mealtime dosing, or at mealtime then fasted dosing.
FIG. 2 is pie charts showing the proportion of healthy participants who experienced gastrointestinal (GI) treatment-emergent adverse events (AEs) following ASBTI administration at mealtime versus in the fasted state for each of the three studies.
as §2

With `CCCCC1(CCCC)CS(=O)(=O)c2ccc(N(C)C)cc2[C@@H](c2ccc(OCc3ccc(C[N+]45CCN(CC4)CC5)cc3)cc2)[C@H]1O` [Maralixibat, maralixibat], in series [1] (Fasted (n=12)), the “Incidence of GI TEAEs: Abdominal pain, % of participants” value came to 8%; the “Incidence of GI TEAEs: Abdominal pain, number of participants” value is reported as 1; the “Incidence of GI TEAEs: Any GI TEAE, % of participants” value was determined as 50%; the “Incidence of GI TEAEs: Any GI TEAE, number of participants” value worked out at 6. In series [1] (Fasted (n=12)), the “Incidence of GI TEAEs: Diarrhea, % of participants” value was found to be 50% and the “Incidence of GI TEAEs: Diarrhea, number of participants” value amounted to 6. Moreover, in series [1] (Fed (n=12)), the “Incidence of GI TEAEs: Abdominal pain, % of participants” value amounted to 42%; the “Incidence of GI TEAEs: Abdominal pain, number of participants” value is listed as 5; the “Incidence of GI TEAEs: Anorectal discomfort, % of participants” value came out at 8%; the “Incidence of GI TEAEs: Anorectal discomfort, number of participants” value turned out to be 1. Moreover, in series [1] (Fed (n=12)), the “Incidence of GI TEAEs: Any GI TEAE, % of participants” value stood at 100%; the “Incidence of GI TEAEs: Any GI TEAE, number of participants” value was 12; the “Incidence of GI TEAEs: Diarrhea, % of participants” value turned out to be 92%; the “Incidence of GI TEAEs: Diarrhea, number of participants” value is on record as 11. Further, in series [1] (Fed (n=12)), the “Incidence of GI TEAEs: Nausea, % of participants” value is given as 25% and the “Incidence of GI TEAEs: Nausea, number of participants” value came to 3. Also, the “diarrhea reported, frequency in patients” value in series [2] stood at 43.6%. In series [3] (Fasted (n=6)), the “Incidence of GI TEAEs: Any GI TEAE, % of participants” value is on record as 0 (0%) and the “Incidence of GI TEAEs: Any GI TEAE, number of participants” value is 0 (0%). In series [3] (Fed (n=6)), the “Incidence of GI TEAEs: Any GI TEAE, % of participants” value turned out to be 33%; the “Incidence of GI TEAEs: Any GI TEAE, number of participants” value came to 2; the “Incidence of GI TEAEs: Diarrhea, % of participants” value worked out at 17%; the “Incidence of GI TEAEs: Diarrhea, number of participants” value is given as 1. In series [3] (Fed (n=6)), the “Incidence of GI TEAEs: Nausea, % of participants” value worked out at 17% and the “Incidence of GI TEAEs: Nausea, number of participants” value is recorded as 1. Also, the “increase in fBA excretion, change compared with pre-treatment value” in series [4] (dosing 30 minutes prior to the meal) amounted to 231%. Moreover, the “increase in fBA excretion, change compared with pre-treatment value” in series [4] (dosing 4 hours after the meal) was 229%. Also, the “fBA excretion vs pretreatment baseline” value in series [4] (regardless of dosing time relative to the daily meal, p<0.01 by paired t-test) is reported as “significantly increased fBA excretion”.

`CCCC[C@]1(CC)CS(=O)(=O)c2ccc(N(C)C)cc2[C@@H](c2cccc(NC(=O)N[C@@H]3O[C@H](COS(=O)(=O)O)[C@@H](O)[C@H](OCc4ccccc4)[C@H]3O)c2)[C@H]1O` [Volixibat, (2R,3R,4S,5R,6R)-4-benzyloxy-6-{3-[3-((3S,4R,5R)-3-butyl-7-dimethylamino-3-ethyl-4-hydroxy-1,1-dioxo-2,3,4,5-tetrahydro-1H-benzo[b]thiepin-5-yl)-phenyl]-ureido}-3,5-dihydroxy-tetrahydro-pyran-2-ylmethyl) hydrogen sulfate]: in series [5] (Fasted (n=8)), the “Incidence of GI TEAEs: Any GI TEAE, % of participants” value is on record as 0 (0%) and the “Incidence of GI TEAEs: Any GI TEAE, number of participants” value is on record as 0 (0%). Moreover, in series [5] (Fed (n=8)), the “Incidence of GI TEAEs: Any GI TEAE, % of participants” value is given as 75%; the “Incidence of GI TEAEs: Any GI TEAE, number of participants” value was 6; the “Incidence of GI TEAEs: Diarrhea, % of participants” value is 50%; the “Incidence of GI TEAEs: Diarrhea, number of participants” value came to 4. For the same compound, in series [5] (Fed (n=8)), the “Incidence of GI TEAEs: Loose stools, % of participants” value was 25% and the “Incidence of GI TEAEs: Loose stools, number of participants” value worked out at 2.
